In PubChem BioAssay (NCI):
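Cells were grown in 96-well plates and exposed to each compound for 48 hours at five concentrations; endpoints were interpolated linearly between bracketing concentrations, or set to the highest concentration if not reached. The concentration for 50% growth inhibition is given as GI50. TGI: concentration producing complete growth inhibition.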

Experiments:
Assay in all cases: NCI anticancer screen, dose series, 48 h
RXF 393 renal = tested on: RXF 393 renal
786-0 renal = tested on: 786-0 renal
MDA-MB-231 breast = tested on: MDA-MB-231 breast
NCI/ADR-RES ovarian = tested on: NCI/ADR-RES ovarian
MDA-N = tested on: MDA-N
SF-295 CNS = tested on: SF-295 CNS
NCI-H23 lung = tested on: NCI-H23 lung
SK-MEL-5 melanoma = tested on: SK-MEL-5 melanoma
DU-145 prostate = tested on: DU-145 prostate

SMILES	TGI (RXF 393 renal) [µM]	TGI (786-0 renal) [µM]	TGI (MDA-MB-231 breast) [µM]	TGI (NCI/ADR-RES ovarian) [µM]	TGI (MDA-N) [µM]	TGI (SF-295 CNS) [µM]	TGI (NCI-H23 lung) [µM]	TGI (SK-MEL-5 melanoma) [µM]	TGI (DU-145 prostate) [µM]	GI50 (MDA-MB-231 breast) [µM]	GI50 (NCI-H23 lung) [µM]	GI50 (SK-MEL-5 melanoma) [µM]	GI50 (DU-145 prostate) [µM]	GI50 (RXF 393 renal) [µM]	GI50 (NCI/ADR-RES ovarian) [µM]	GI50 (SF-295 CNS) [µM]
Cc1cc2c(c(=O)n1C)SCC2	> 100	> 100	> 100	> 100	> 100	> 100	> 100	> 100	> 100	–	–	–	–	–	–	–
CCN(CC)c1nc(N(C)C)c2ccccc2n1	76.6	> 100	> 100	> 100	59.9	> 100	> 100	35	–	–	–	–	–	–	–	–
Cc1ccc(S(=O)(=O)n2cc(C#N)c(C#N)c2)cc1	94.3	> 100	> 100	> 100	70.7	61.6	91.3	42	> 100	–	–	–	–	–	–	–
CN1C(=O)C(O)CC1c1cccc(C(F)(F)F)c1 (stereo not drawn)	> 100	> 100	> 100	> 100	–	> 100	> 100	> 100	> 100	–	–	–	–	–	–	–
CC(C)(C)C1CC[C@H](O)[C@H]([C@H](O)CC2CC(=O)N(c3ccccc3)C(=O)C2)C1 (stereo partly drawn)	> 100	> 100	> 100	> 100	> 100	> 100	> 100	> 100	> 100	–	–	–	–	–	–	–
COC(=O)c1c(-c2ccc(Cl)cc2)cc2c3ccccc3n(C)c2c1C(=O)OC	–	> 100	> 100	> 100	> 100	> 100	> 100	> 100	> 100	–	–	–	–	–	–	–
CCCNc1ncnc2[nH]ncc12	> 100	> 100	> 100	> 100	> 100	> 100	> 100	> 100	> 100	–	–	–	–	–	–	–
CN(C)C(=S)Oc1ccc2ccc(=O)oc2c1	> 100	> 100	> 100	> 100	> 100	> 100	> 100	> 100	> 100	–	–	–	–	–	–	–
Cc1ccccc1OC(C)C(=O)NN1C(=O)CC(=O)N(c2ccccc2)C1=S (stereo not drawn)	> 100	> 100	> 100	> 100	–	> 100	> 100	> 100	> 100	–	–	–	–	–	–	–
CCN(CC)c1ccc2cc(-c3nc4ccccc4c(=O)[nH]3)c(=N)oc2c1	> 100	> 100	> 100	> 100	> 100	> 100	–	> 100	> 100	–	–	–	–	–	–	–
NCCC1CN(C(=O)OCc2ccccc2)c2ccccc21 (stereo not drawn)	32.3	29.8	46.6	36.7	26.6	40.3	41.8	24.7	48.9	–	–	–	–	–	–	–
C(/Cc1ccc2c(c1)OCO2)=N\NC1=NCCCN1	> 100	> 100	> 100	> 100	> 100	> 100	> 100	56.4	> 100	–	–	–	–	–	–	–
COC(=O)[C@@H]1CN(C(=O)c2ccccc2)C(=O)N1C(=O)OCc1ccccc1	> 100	> 100	> 100	> 100	> 100	> 100	> 100	> 100	> 100	–	–	–	–	–	–	–
O=c1cc(NCc2ccncc2)[nH]c(=O)[nH]1	> 100	> 100	> 100	> 100	> 100	> 100	> 100	> 100	–	–	–	–	–	–	–	–
CCOC(=O)c1cn(C)c(=S)n2c1nc1ccccc12	> 100	> 100	> 100	> 100	–	> 100	> 100	> 100	> 100	–	–	–	–	–	–	–
Cc1nc2ccc(Cl)cc2c2c1CCN2c1ccccc1	18.6	25.2	13.7	26	10.1	20.1	43.6	20.7	63.8	–	–	–	–	–	–	–
NCCOCC(N)C(=O)O (stereo not drawn)	> 100	> 100	> 100	> 100	> 100	> 100	> 100	> 100	> 100	–	–	–	–	–	–	–
CSc1nc(NC(C)C)c2c(n1)Sc1nc3ccccc3n1C2O (stereo not drawn)	30.4	> 100	> 100	–	11.9	> 100	> 100	–	–	–	–	–	–	–	–	–
CS(=O)(=O)NC12CCC(c3ccccc31)c1ccccc12	–	> 100	> 100	> 100	> 100	–	> 100	> 100	> 100	–	–	–	–	–	–	–
CCOC(=O)C1CCCCN1CCc1c[nH]c2ccccc12 (stereo not drawn)	> 100	> 100	> 100	> 100	> 100	> 100	> 100	> 100	> 100	–	–	–	–	–	–	–
CCOC(=O)C1(C(F)(F)F)N=C(CC)OC(N2CCOCC2)=N1 (stereo not drawn)	> 100	–	> 100	> 100	> 100	> 100	> 100	> 100	> 100	–	–	–	–	–	–	–
COC(=O)C1=C(O)C(C(=O)OC)[C@]2(O)[C@H](C(=O)OC)[C@H]1C[C@@H](c1ccc([N+](=O)[O-])cc1)[C@H]2C(=O)OC (stereo partly drawn)	32.4	31	83.9	51.8	35.6	> 100	31.4	30	> 100	–	–	–	–	–	–	–
NC1=NCC(CN2CCCC2)O1 (stereo not drawn)	> 100	> 100	> 100	> 100	> 100	> 100	> 100	> 100	> 100	–	–	–	–	–	–	–
O=C1CC(n2cccc2)c2c(Br)sc(Br)c21 (stereo not drawn)	43.4	43.8	30.9	69.6	31.6	55.8	27.9	29.6	31.8	–	–	–	–	–	–	–

SMILES	TGI (RXF 393 renal) [µM]	TGI (786-0 renal) [µM]	TGI (MDA-MB-231 breast) [µM]	TGI (NCI/ADR-RES ovarian) [µM]	TGI (MDA-N) [µM]	TGI (SF-295 CNS) [µM]	TGI (NCI-H23 lung) [µM]	TGI (SK-MEL-5 melanoma) [µM]	TGI (DU-145 prostate) [µM]	GI50 (MDA-MB-231 breast) [µM]	GI50 (NCI-H23 lung) [µM]	GI50 (SK-MEL-5 melanoma) [µM]	GI50 (DU-145 prostate) [µM]	GI50 (RXF 393 renal) [µM]	GI50 (NCI/ADR-RES ovarian) [µM]	GI50 (SF-295 CNS) [µM]
O=[N+]([O-])c1cccnc1-n1cnc2ccccc21	> 100	> 100	> 100	> 100	–	> 100	–	> 100	> 100	–	–	–	–	–	–	–
C=CC1CN2CCC1CC2C(O)c1ccnc2ccccc12 (stereo not drawn)	> 100	> 100	> 100	> 100	–	> 100	> 100	> 100	> 100	–	–	–	–	–	–	–
N#Cc1nc(C#N)n(C(=O)c2ccccc2)c1NC(=O)c1ccccc1	> 100	> 100	> 100	> 100	> 100	> 100	> 100	> 100	> 100	–	–	–	–	–	–	–
NC(=O)Cc1nc2c(=O)[nH]cnc2n1C1OC(CO)C(O)C1O (stereo not drawn)	> 100	> 100	> 100	> 100	> 100	> 100	> 100	> 100	> 100	–	–	–	–	–	–	–
CC(=O)/C(=C\c1ccc(Cl)c(Cl)c1)C(=O)C(C)CN(C)C (stereo not drawn)	–	8.96	27.3	72.5	16.2	16.5	30.6	25.3	17.3	–	–	–	–	–	–	–
Cn1c2ccccc2n2c3ncccc3c(=S)c(C#N)c12	> 100	> 100	> 100	> 100	> 100	> 100	> 100	> 100	> 100	–	–	–	–	–	–	–
c1ccc(-c2nnn(CCN3CCCCC3)n2)cc1	> 100	> 100	> 100	> 100	> 100	> 100	> 100	> 100	> 100	–	–	–	–	–	–	–
CO[C@]1(CN2CCN3CCCC[C@@H]3C2)/C=C/C[C@H](C)[C@@H](C)S(=O)(=O)NC(=O)c2ccc3c(c2)N(C[C@@H]2CC[C@H]21)C[C@@]1(CCCc2cc(Cl)ccc21)CO3	–	–	3.27	–	–	–	2.29	3.11	6.54	1.78	1.03	1.71	2.4	–	–	–
CSc1ccc(/C=C2\N=C(c3ccccc3)N(/N=C/c3cc4cc(C)ccc4nc3Cl)C2=O)cc1	–	35.1	47.6	78.1	34.5	44.7	–	32.9	36	–	–	–	–	–	–	–
Cc1[nH]c(=O)[nH]c(=S)c1C(=O)Nc1cccc2cc3ccccc3cc12	> 100	–	–	> 100	–	> 100	> 100	> 100	> 100	–	–	–	–	–	–	–
CCC(CC(C)C)Nc1ccc(NC(CC)CC(C)C)cc1 (stereo not drawn)	28.1	–	33.2	39.8	–	61.4	46.3	28.2	82.1	16.4	18.2	15	26.5	14.9	17.6	23
S=C(NCc1ccccc1)N/N=C/c1ccccn1	–	> 65.3	> 100	8.52	> 100	–	> 100	> 93.6	> 100	–	–	–	–	–	–	–
C=C1C(=O)O[C@H]2[C@H]3O[C@@H](C[C@@H]12)[C@](C)(O)CC[C@@H]1O[C@@]1(C)CCC[C@H]3C	26.9	33.9	65.8	> 100	–	> 100	41.7	33.5	33.4	–	–	–	–	–	–	–
CC(=O)Nc1cc(Nc2cc(=O)[nH]c(=O)[nH]2)ccc1C	> 100	> 100	> 100	> 100	> 100	> 100	–	> 100	> 100	–	–	–	–	–	–	–
O=C1c2ccccc2-c2[nH]c3cn[nH]c(=O)c3c21	–	> 100	> 100	> 100	> 100	> 100	> 100	> 100	> 100	–	–	–	–	–	–	–
COc1ccccc1CNCCCCCCCCCCCCN1C(=O)c2ccc3c4c(ccc(c24)C1=O)C(=O)N(CCCCCCCCCCCCNCc1ccccc1OC)C3=O	2.11	–	> 50	–	–	> 50	–	> 50	> 50	> 50	–	48.9	2.91	0.922	–	2.24
CC1CC/C(=C\c2ccc(Cl)cc2)c2nc(N)c(C#N)c(-c3ccc(Cl)cc3)c21 (stereo not drawn)	–	> 100	> 100	> 100	> 100	> 100	> 100	> 100	–	–	–	–	–	–	–	–
Nc1ncnc2c1ncn2Cc1cccc(CCl)c1	18.8	34.6	34	50.8	–	41.8	36.5	30.4	27.1	–	–	–	–	–	–	–
O=C1c2ccccc2C(=O)N1c1nc(-c2ccc(Cl)cc2)cc(N2N=C(c3ccc(Br)cc3)CC2c2ccccc2)n1 (stereo not drawn)	–	> 34.1	23.3	6.05	4.57	3.65	> 22.6	5.02	> 23.3	–	–	–	–	–	–	–
O=C(NNCc1ccc(Cl)cc1)Nc1cccc2ccccc12	> 100	> 100	–	> 100	> 100	> 100	> 100	> 100	> 100	–	–	–	–	–	–	–
C/C(=N\Nc1nc2ccccc2[nH]1)c1cc2ccccc2cn1	–	0.743	1.97	1.16	2.24	–	1.64	1.6	1.91	–	–	–	–	–	–	–
CC1OC2OC3C(OCC(O)C3O)OC(=O)[C@]34CCC(C)(C)CC3C3=CCC5[C@@]6(C)C[C@H](O)[C@H](OC7OC(CO)C(O)C(O)C7OC7OCC(OC(=O)CC(C)(O)CC(=O)OC1C(OC1OC(CO)C(O)C(O)C1O)C2O)C(O)C7O)[C@@](C)(CO)C6CC[C@@]5(C)[C@]3(C)CC4 (stereo partly drawn)	–	15.5	21.1	19.1	7.76	13.4	14.1	28.8	17.3	–	–	–	–	–	–	–
O=C(Nc1cccc(-n2cc(-c3ccncc3)c(-c3ccc(O)c(Cl)c3)n2)c1)c1cccc(C(F)(F)F)c1	5.64	–	5.3	> 100	–	> 100	> 100	16.2	> 100	1.43	4.38	2.38	6.52	1.1	4.09	2.98
